System: patients with seasonal allergic rhinitis (SAR)
Assay: MP 428 study: adverse events, Safety Population
Type: in vivo, human
Experimental: A two-week, randomized, double-blind study, which evaluated the effects of the co-administration of ASTELIN® (azelastine hydrochloride (HCl)) and FLONASE® (fluticasone propionate) compared to either product alone in patients with seasonal allergic rhinitis (SAR) was conducted during the 2006 Texas mountain cedar season. After a 5-day placebo lead-in period, 151 patients with moderate-to-severe allergic rhinitis symptoms were randomized to either: (1) (49 total patients) ASTELIN® (azelastine hydrochloride (HCl)) plus placebo saline nasal spray 2 sprays per nostril, 15 minutes apart, twice daily (AM & PM); (2) (50 total patients) FLONASE® (fluticasone propionate) plus placebo saline nasal spray, 2 sprays per nostril, 15 minutes apart, once daily (AM) and two sessions of placebo saline nasal spray, 2 sprays per nostril, 15 minutes apart (PM); or (3) (52 total patients) the co-administration of ASTELIN® (azelastine hydrochloride (HCl)) 2 sprays per nostril plus FLONASE® (fluticasone propionate) 2 sprays per nostril (AM), 15 minutes apart, and ASTELIN® (azelastine hydrochloride (HCl)) 2 sprays per nostril plus placebo saline nasal spray, 15 minutes apart, (PM) for a 2-week double-blind treatment period.
The most common adverse events (AEs) were bitter taste (8.2% in ASTELIN® (azelastine hydrochloride (HCl)) group, 2.0% in FLONASE® (fluticasone propionate) group, 13.5% in co-administration group) and headache (4.1% in ASTELIN® (azelastine hydrochloride (HCl)) group, 4.0% in FLONASE® (fluticasone propionate) group, 5.8% in co-administration group). No other AE was reported by more than one patient in any treatment group. There were no discontinuations due to AEs.

[1] = Possibly related to study drug, Safety Population
[2] = Probably related to study drug, Safety Population
[3] = Total (possibly or probably related), Safety Population

## CCC(=O)O[C@]1(C(=O)SCF)[C@H](C)C[C@H]2[C@@H]3C[C@H](F)C4=CC(=O)C=C[C@]4(C)[C@@]3(F)[C@@H](O)C[C@@]21C [Fluticasone, fluticasone propionate]
All Randomized Patients
  Primary Reason for Discontinuation From Study: Adverse Event: 0 (0.0) N (%)
Mild
  Number (%) Patients With Treatment-Related AEs by Maximum Severity: 3 (6.0) Number (%)
Moderate
  Number (%) Patients With Treatment-Related AEs by Maximum Severity: 1 (2.0) Number (%)
[1]
  Treatment-Related Adverse Events: Any Adverse Event: 4 (8.0) No. of Patients (%)
  Treatment-Related Adverse Events: DRY MOUTH: 1 (2.0) No. of Patients (%)
  Treatment-Related Adverse Events: DYSGEUSIA: 1 (2.0) No. of Patients (%)
  Treatment-Related Adverse Events: EPISTAXIS: 0 (0.0) No. of Patients (%)
  Treatment-Related Adverse Events: GASTROINTESTINAL DISORDERS, Any Preferred Term: 3 (6.0) No. of Patients (%)
  Treatment-Related Adverse Events: HEADACHE: 1 (2.0) No. of Patients (%)
  Treatment-Related Adverse Events: NASAL DISCOMFORT: 0 (0.0) No. of Patients (%)
  Treatment-Related Adverse Events: NERVOUS SYSTEM DISORDERS, Any Preferred Term: 1 (2.0) No. of Patients (%)
  Treatment-Related Adverse Events: RESPIRATORY, THORACIC AND MEDIASTINAL DISORDERS, Any Preferred Term: 0 (0.0) No. of Patients (%)
  Treatment-Related Adverse Events: STOMACH DISCOMFORT: 1 (2.0) No. of Patients (%)
[2]
  Treatment-Related Adverse Events: Any Adverse Event: 0 (0.0) No. of Patients (%)
  Treatment-Related Adverse Events: DRY MOUTH: 0 (0.0) No. of Patients (%)
  Treatment-Related Adverse Events: DYSGEUSIA: 0 (0.0) No. of Patients (%)
  Treatment-Related Adverse Events: EPISTAXIS: 0 (0.0) No. of Patients (%)
  Treatment-Related Adverse Events: GASTROINTESTINAL DISORDERS, Any Preferred Term: 0 (0.0) No. of Patients (%)
  Treatment-Related Adverse Events: HEADACHE: 0 (0.0) No. of Patients (%)
  Treatment-Related Adverse Events: NASAL DISCOMFORT: 0 (0.0) No. of Patients (%)
  Treatment-Related Adverse Events: NERVOUS SYSTEM DISORDERS, Any Preferred Term: 0 (0.0) No. of Patients (%)
  Treatment-Related Adverse Events: RESPIRATORY, THORACIC AND MEDIASTINAL DISORDERS, Any Preferred Term: 0 (0.0) No. of Patients (%)
  Treatment-Related Adverse Events: STOMACH DISCOMFORT: 0 (0.0) No. of Patients (%)
Safety Population
  Number (%) Patients With Any AEs: All Treatment-Related AEs: 4 (8.0) Number (%)
  Number (%) of Deaths: 0 (0.0) Number (%)
  Number (%) of Patients With Serious AEs: 0 (0.0) Number (%)
  Number of Adverse Events Reported: All Treatment-Emergent AEs: 5
  Number of Adverse Events Reported: All Treatment-Related AEs: 4
Severe
  Number (%) Patients With Treatment-Related AEs by Maximum Severity: 0 (0.0) Number (%)
Total
  Treatment-Emergent AE: Any Adverse Event: 5 (10.0) No. of Patients (%)
  Treatment-Emergent AE: DRY MOUTH: 1 (2.0) No. of Patients (%)
  Treatment-Emergent AE: DYSGEUSIA: 1 (2.0) No. of Patients (%)
  Treatment-Emergent AE: EAR AND LABYRINTH DISORDERS, Any Preferred Term: 0 (0.0) No. of Patients (%)
  Treatment-Emergent AE: EAR PAIN: 0 (0.0) No. of Patients (%)
  Treatment-Emergent AE: EPISTAXIS: 0 (0.0) No. of Patients (%)
  Treatment-Emergent AE: GASTROINTESTINAL DISORDERS, Any Preferred Term: 3 (6.0) No. of Patients (%)
  Treatment-Emergent AE: HEADACHE: 2 (4.0) No. of Patients (%)
  Treatment-Emergent AE: MUSCULOSKELETAL AND CONNECTIVE TISSUE DISORDERS, Any Preferred Term: 0 (0.0) No. of Patients (%)
  Treatment-Emergent AE: MYALGIA: 0 (0.0) No. of Patients (%)
  Treatment-Emergent AE: NASAL DISCOMFORT: 0 (0.0) No. of Patients (%)
  Treatment-Emergent AE: NECK PAIN: 0 (0.0) No. of Patients (%)
  Treatment-Emergent AE: NERVOUS SYSTEM DISORDERS, Any Preferred Term: 2 (4.0) No. of Patients (%)
  Treatment-Emergent AE: PHARYNGOLARYNGEAL PAIN: 0 (0.0) No. of Patients (%)
  Treatment-Emergent AE: RESPIRATORY, THORACIC AND MEDIASTINAL DISORDERS, Any Preferred Term: 0 (0.0) No. of Patients (%)
  Treatment-Emergent AE: STOMACH DISCOMFORT: 1 (2.0) No. of Patients (%)
[3]
  Treatment-Related Adverse Events: Any Adverse Event: 4 (8.0) No. of Patients (%)
  Treatment-Related Adverse Events: DRY MOUTH: 1 (2.0) No. of Patients (%)
  Treatment-Related Adverse Events: DYSGEUSIA: 1 (2.0) No. of Patients (%)
  Treatment-Related Adverse Events: EPISTAXIS: 0 (0.0) No. of Patients (%)
  Treatment-Related Adverse Events: GASTROINTESTINAL DISORDERS, Any Preferred Term: 3 (6.0) No. of Patients (%)
  Treatment-Related Adverse Events: HEADACHE: 1 (2.0) No. of Patients (%)
  Treatment-Related Adverse Events: NASAL DISCOMFORT: 0 (0.0) No. of Patients (%)
  Treatment-Related Adverse Events: NERVOUS SYSTEM DISORDERS, Any Preferred Term: 1 (2.0) No. of Patients (%)
  Treatment-Related Adverse Events: RESPIRATORY, THORACIC AND MEDIASTINAL DISORDERS, Any Preferred Term: 0 (0.0) No. of Patients (%)
  Treatment-Related Adverse Events: STOMACH DISCOMFORT: 1 (2.0) No. of Patients (%)
Max severity Mild
  Treatment-Emergent AE: Any Adverse Event: 4 (8.0) No. of Patients (%)
  Treatment-Emergent AE: DRY MOUTH: 1 (2.0) No. of Patients (%)
  Treatment-Emergent AE: DYSGEUSIA: 1 (2.0) No. of Patients (%)
  Treatment-Emergent AE: EAR AND LABYRINTH DISORDERS, Any Preferred Term: 0 (0.0) No. of Patients (%)
  Treatment-Emergent AE: EAR PAIN: 0 (0.0) No. of Patients (%)
  Treatment-Emergent AE: EPISTAXIS: 0 (0.0) No. of Patients (%)
  Treatment-Emergent AE: GASTROINTESTINAL DISORDERS, Any Preferred Term: 2 (4.0) No. of Patients (%)
  Treatment-Emergent AE: HEADACHE: 2 (4.0) No. of Patients (%)
  Treatment-Emergent AE: MUSCULOSKELETAL AND CONNECTIVE TISSUE DISORDERS, Any Preferred Term: 0 (0.0) No. of Patients (%)
  Treatment-Emergent AE: MYALGIA: 0 (0.0) No. of Patients (%)
  Treatment-Emergent AE: NASAL DISCOMFORT: 0 (0.0) No. of Patients (%)
  Treatment-Emergent AE: NECK PAIN: 0 (0.0) No. of Patients (%)
  Treatment-Emergent AE: NERVOUS SYSTEM DISORDERS, Any Preferred Term: 2 (4.0) No. of Patients (%)
  Treatment-Emergent AE: PHARYNGOLARYNGEAL PAIN: 0 (0.0) No. of Patients (%)
  Treatment-Emergent AE: RESPIRATORY, THORACIC AND MEDIASTINAL DISORDERS, Any Preferred Term: 0 (0.0) No. of Patients (%)
  Treatment-Emergent AE: STOMACH DISCOMFORT: 0 (0.0) No. of Patients (%)
Max severity Moderate
  Treatment-Emergent AE: Any Adverse Event: 1 (2.0) No. of Patients (%)
  Treatment-Emergent AE: DRY MOUTH: 0 (0.0) No. of Patients (%)
  Treatment-Emergent AE: DYSGEUSIA: 0 (0.0) No. of Patients (%)
  Treatment-Emergent AE: EAR AND LABYRINTH DISORDERS, Any Preferred Term: 0 (0.0) No. of Patients (%)
  Treatment-Emergent AE: EAR PAIN: 0 (0.0) No. of Patients (%)
  Treatment-Emergent AE: EPISTAXIS: 0 (0.0) No. of Patients (%)
  Treatment-Emergent AE: GASTROINTESTINAL DISORDERS, Any Preferred Term: 1 (2.0) No. of Patients (%)
  Treatment-Emergent AE: HEADACHE: 0 (0.0) No. of Patients (%)
  Treatment-Emergent AE: MUSCULOSKELETAL AND CONNECTIVE TISSUE DISORDERS, Any Preferred Term: 0 (0.0) No. of Patients (%)
  Treatment-Emergent AE: MYALGIA: 0 (0.0) No. of Patients (%)
  Treatment-Emergent AE: NASAL DISCOMFORT: 0 (0.0) No. of Patients (%)
  Treatment-Emergent AE: NECK PAIN: 0 (0.0) No. of Patients (%)
  Treatment-Emergent AE: NERVOUS SYSTEM DISORDERS, Any Preferred Term: 0 (0.0) No. of Patients (%)
  Treatment-Emergent AE: PHARYNGOLARYNGEAL PAIN: 0 (0.0) No. of Patients (%)
  Treatment-Emergent AE: RESPIRATORY, THORACIC AND MEDIASTINAL DISORDERS, Any Preferred Term: 0 (0.0) No. of Patients (%)
  Treatment-Emergent AE: STOMACH DISCOMFORT: 1 (2.0) No. of Patients (%)
Max severity Severe
  Treatment-Emergent AE: Any Adverse Event: 0 (0.0) No. of Patients (%)
  Treatment-Emergent AE: DRY MOUTH: 0 (0.0) No. of Patients (%)
  Treatment-Emergent AE: DYSGEUSIA: 0 (0.0) No. of Patients (%)
  Treatment-Emergent AE: EAR AND LABYRINTH DISORDERS, Any Preferred Term: 0 (0.0) No. of Patients (%)
  Treatment-Emergent AE: EAR PAIN: 0 (0.0) No. of Patients (%)
  Treatment-Emergent AE: EPISTAXIS: 0 (0.0) No. of Patients (%)
  Treatment-Emergent AE: GASTROINTESTINAL DISORDERS, Any Preferred Term: 0 (0.0) No. of Patients (%)
  Treatment-Emergent AE: HEADACHE: 0 (0.0) No. of Patients (%)
  Treatment-Emergent AE: MUSCULOSKELETAL AND CONNECTIVE TISSUE DISORDERS, Any Preferred Term: 0 (0.0) No. of Patients (%)
  Treatment-Emergent AE: MYALGIA: 0 (0.0) No. of Patients (%)
  Treatment-Emergent AE: NASAL DISCOMFORT: 0 (0.0) No. of Patients (%)
  Treatment-Emergent AE: NECK PAIN: 0 (0.0) No. of Patients (%)
  Treatment-Emergent AE: NERVOUS SYSTEM DISORDERS, Any Preferred Term: 0 (0.0) No. of Patients (%)
  Treatment-Emergent AE: PHARYNGOLARYNGEAL PAIN: 0 (0.0) No. of Patients (%)
  Treatment-Emergent AE: RESPIRATORY, THORACIC AND MEDIASTINAL DISORDERS, Any Preferred Term: 0 (0.0) No. of Patients (%)
  Treatment-Emergent AE: STOMACH DISCOMFORT: 0 (0.0) No. of Patients (%)
Share of treatment group
  adverse event: bitter taste: 2.0%
  adverse event: headache: 4.0%
